Laboratory results from ChEMBL document CHEMBL1154057, “Synthesis and antibacterial activity of novel 15-membered macrolide derivatives: 4''-carbamate, 11,12-cyclic carbonate-4''-carbamate and 11,4''-di-O-arylcarbamoyl analogs of azithromycin” (2009).
≈ marks a conversion by molar mass, not a printed value.

Tests used:
Streptococcus pneumoniae [1] = assay: Antibacterial activity against erythromycin-susceptible Streptococcus pneumoniae ATCC 49619
Streptococcus pneumoniae [2] = assay: Antibacterial activity against erythromycin-resistant Streptococcus pneumoniae B1 encoded by erm gene
Streptococcus pneumoniae [3] = assay: Antibacterial activity against erythromycin-resistant Streptococcus pneumoniae A22072 encoded by mef gene
Streptococcus pneumoniae [4] = assay: Antibacterial activity against erythromycin-resistant Streptococcus pneumoniae AB11 encoded by erm and mef gene

SMILES | MIC (Streptococcus pneumoniae [1]) | MIC (Streptococcus pneumoniae [2]) | MIC (Streptococcus pneumoniae [3]) | MIC (Streptococcus pneumoniae [4])
CCCNC(=O)O[C@H]1[C@H](C)O[C@@H](O[C@H]2[C@H](C)[C@@H](O[C@@H]3O[C@H](C)C[C@H](N(C)C)[C@H]3O)[C@@](C)(O)C[C@@H](C)CN(C)[C@H](C)[C@H]3OC(=O)O[C@]3(C)[C@@H](CC)OC(=O)[C@@H]2C)C[C@@]1(C)OC | 0.06 µg/mL (≈ 0.0698 µM) | 16 µg/mL (≈ 18.6 µM) | 0.12 µg/mL (≈ 0.14 µM) | 16 µg/mL (≈ 18.6 µM)
CCCCNC(=O)O[C@H]1[C@H](C)O[C@@H](O[C@H]2[C@H](C)[C@@H](O[C@@H]3O[C@H](C)C[C@H](N(C)C)[C@H]3O)[C@@](C)(O)C[C@@H](C)CN(C)[C@H](C)[C@H]3OC(=O)O[C@]3(C)[C@@H](CC)OC(=O)[C@@H]2C)C[C@@]1(C)OC | 0.12 µg/mL (≈ 0.137 µM) | 8 µg/mL (≈ 9.15 µM) | 1 µg/mL (≈ 1.14 µM) | 16 µg/mL (≈ 18.3 µM)
CC[C@H]1OC(=O)[C@H](C)[C@@H](O[C@H]2C[C@@](C)(OC)[C@@H](OC(=O)NCc3ccc(F)cc3)[C@H](C)O2)[C@H](C)[C@@H](O[C@@H]2O[C@H](C)C[C@H](N(C)C)[C@H]2O)[C@@](C)(O)C[C@@H](C)CN(C)[C@H](C)[C@@H](OC(=O)NCCc2ccccc2)[C@]1(C)O | < 0.03 µg/mL | 0.25 µg/mL (≈ 0.239 µM) | 0.06 µg/mL (≈ 0.0573 µM) | 32 µg/mL (≈ 30.6 µM)
CC[C@H]1OC(=O)[C@H](C)[C@@H](O[C@H]2C[C@@](C)(OC)[C@@H](OC(=O)NCCc3ccccc3Cl)[C@H](C)O2)[C@H](C)[C@@H](O[C@@H]2O[C@H](C)C[C@H](N(C)C)[C@H]2O)[C@@](C)(O)C[C@@H](C)CN(C)[C@H](C)[C@@H](OC(=O)NCCc2ccc(O)cc2)[C@]1(C)O | < 0.03 µg/mL | 0.25 µg/mL (≈ 0.229 µM) | 0.06 µg/mL (≈ 0.0549 µM) | 16 µg/mL (≈ 14.6 µM)
CC[C@H]1OC(=O)[C@H](C)[C@@H](O[C@H]2C[C@@](C)(OC)[C@@H](OC(=O)NCCc3ccc(O)cc3)[C@H](C)O2)[C@H](C)[C@@H](O[C@@H]2O[C@H](C)C[C@H](N(C)C)[C@H]2O)[C@@](C)(O)C[C@@H](C)CN(C)[C@H](C)[C@@H](OC(=O)NCCc2ccccc2Cl)[C@]1(C)O | < 0.03 µg/mL | 0.25 µg/mL (≈ 0.229 µM) | 0.25 µg/mL (≈ 0.229 µM) | 16 µg/mL (≈ 14.6 µM)
CCCCCNC(=O)O[C@@H]1[C@@H](C)N(C)C[C@H](C)C[C@](C)(O)[C@H](O[C@@H]2O[C@H](C)C[C@H](N(C)C)[C@H]2O)[C@@H](C)[C@H](O[C@H]2C[C@@](C)(OC)[C@@H](OC(=O)NCCc3ccccc3Cl)[C@H](C)O2)[C@@H](C)C(=O)O[C@H](CC)[C@@]1(C)O | < 0.03 µg/mL | 0.5 µg/mL (≈ 0.479 µM) | 0.5 µg/mL (≈ 0.479 µM) | 16 µg/mL (≈ 15.3 µM)
CC[C@H]1OC(=O)[C@H](C)[C@@H](O[C@H]2C[C@@](C)(OC)[C@@H](OC(=O)NCCc3ccc4c(c3)OCO4)[C@H](C)O2)[C@H](C)[C@@H](O[C@@H]2O[C@H](C)C[C@H](N(C)C)[C@H]2O)[C@@](C)(O)C[C@@H](C)CN(C)C(C)[C@H]2OC(=O)O[C@@]21C (some centres not stated) | < 0.03 µg/mL | 4 µg/mL (≈ 4.14 µM) | 0.06 µg/mL (≈ 0.0621 µM) | 2 µg/mL (≈ 2.07 µM)
C=CCNC(=O)O[C@H]1[C@H](C)O[C@@H](O[C@H]2[C@H](C)[C@@H](O[C@@H]3O[C@H](C)C[C@H](N(C)C)[C@H]3O)[C@@](C)(O)C[C@@H](C)CN(C)[C@H](C)[C@H]3OC(=O)O[C@]3(C)[C@@H](CC)OC(=O)[C@@H]2C)C[C@@]1(C)OC | 0.12 µg/mL (≈ 0.14 µM) | 64 µg/mL (≈ 74.6 µM) | 1 µg/mL (≈ 1.17 µM) | 128 µg/mL (≈ 149 µM)
CCCCCNC(=O)O[C@H]1[C@H](C)O[C@@H](O[C@H]2[C@H](C)[C@@H](O[C@@H]3O[C@H](C)C[C@H](N(C)C)[C@H]3O)[C@@](C)(O)C[C@@H](C)CN(C)[C@H](C)[C@H]3OC(=O)O[C@]3(C)[C@@H](CC)OC(=O)[C@@H]2C)C[C@@]1(C)OC | 0.06 µg/mL (≈ 0.0676 µM) | 16 µg/mL (≈ 18 µM) | 8 µg/mL (≈ 9.01 µM) | 16 µg/mL (≈ 18 µM)
CC[C@H]1OC(=O)[C@H](C)[C@@H](O[C@H]2C[C@@](C)(OC)[C@@H](OC(=O)NC(C)C)[C@H](C)O2)[C@H](C)[C@@H](O[C@@H]2O[C@H](C)C[C@H](N(C)C)[C@H]2O)[C@@](C)(O)C[C@@H](C)CN(C)[C@H](C)[C@H]2OC(=O)O[C@@]21C | 0.12 µg/mL (≈ 0.14 µM) | 16 µg/mL (≈ 18.6 µM) | 8 µg/mL (≈ 9.3 µM) | 128 µg/mL (≈ 149 µM)
CC[C@H]1OC(=O)[C@H](C)[C@@H](O[C@H]2C[C@@](C)(OC)[C@@H](OC(=O)NC3CCCCC3)[C@H](C)O2)[C@H](C)[C@@H](O[C@@H]2O[C@H](C)C[C@H](N(C)C)[C@H]2O)[C@@](C)(O)C[C@@H](C)CN(C)[C@H](C)[C@H]2OC(=O)O[C@@]21C | 0.06 µg/mL (≈ 0.0667 µM) | 16 µg/mL (≈ 17.8 µM) | 2 µg/mL (≈ 2.22 µM) | 32 µg/mL (≈ 35.5 µM)
CCCCNC(=O)O[C@@H]1[C@@H](C)N(C)C[C@H](C)C[C@](C)(O)[C@H](O[C@@H]2O[C@H](C)C[C@H](N(C)C)[C@H]2O)[C@@H](C)[C@H](O[C@H]2C[C@@](C)(OC)[C@@H](OC(=O)NCCc3ccc(O)cc3)[C@H](C)O2)[C@@H](C)C(=O)O[C@H](CC)[C@@]1(C)O | < 0.03 µg/mL | 0.25 µg/mL (≈ 0.247 µM) | 1 µg/mL (≈ 0.989 µM) | 128 µg/mL (≈ 127 µM)
CC[C@H]1OC(=O)[C@H](C)[C@@H](O[C@H]2C[C@@](C)(OC)[C@@H](OC(=O)NCCc3ccc(O)cc3)[C@H](C)O2)[C@H](C)[C@@H](O[C@@H]2O[C@H](C)C[C@H](N(C)C)[C@H]2O)[C@@](C)(O)C[C@@H](C)CN(C)[C@H](C)[C@@H](OC(=O)NCc2ccccc2)[C@]1(C)O | < 0.03 µg/mL | 0.25 µg/mL (≈ 0.239 µM) | 0.12 µg/mL (≈ 0.115 µM) | 128 µg/mL (≈ 122 µM)
CCCCCNC(=O)O[C@@H]1[C@@H](C)N(C)C[C@H](C)C[C@](C)(O)[C@H](O[C@@H]2O[C@H](C)C[C@H](N(C)C)[C@H]2O)[C@@H](C)[C@H](O[C@H]2C[C@@](C)(OC)[C@@H](OC(=O)NCc3ccc(OC)cc3)[C@H](C)O2)[C@@H](C)C(=O)O[C@H](CC)[C@@]1(C)O | 0.06 µg/mL (≈ 0.0585 µM) | 0.5 µg/mL (≈ 0.488 µM) | 1 µg/mL (≈ 0.975 µM) | 32 µg/mL (≈ 31.2 µM)
CCCCNC(=O)O[C@@H]1[C@@H](C)N(C)C[C@H](C)C[C@](C)(O)[C@H](O[C@@H]2O[C@H](C)C[C@H](N(C)C)[C@H]2O)[C@@H](C)[C@H](O[C@H]2C[C@@](C)(OC)[C@@H](OC(=O)NCc3ccc(OC)cc3)[C@H](C)O2)[C@@H](C)C(=O)O[C@H](CC)[C@@]1(C)O | 0.06 µg/mL (≈ 0.0593 µM) | 0.5 µg/mL (≈ 0.494 µM) | 1 µg/mL (≈ 0.989 µM) | 128 µg/mL (≈ 127 µM)
CC[C@H]1OC(=O)[C@H](C)[C@@H](O[C@H]2C[C@@](C)(OC)[C@@H](OC(=O)NCc3ccc(F)cc3)[C@H](C)O2)[C@H](C)[C@@H](O[C@@H]2O[C@H](C)C[C@H](N(C)C)[C@H]2O)[C@@](C)(O)C[C@@H](C)CN(C)[C@H](C)[C@@H](OC(=O)NCCc2ccccc2Cl)[C@]1(C)O | < 0.03 µg/mL | 0.25 µg/mL (≈ 0.231 µM) | 0.12 µg/mL (≈ 0.111 µM) | 2 µg/mL (≈ 1.85 µM)
CC[C@H]1OC(=O)[C@H](C)[C@@H](O[C@H]2C[C@@](C)(OC)[C@@H](OC(=O)NCCc3ccccc3Cl)[C@H](C)O2)[C@H](C)[C@@H](O[C@@H]2O[C@H](C)C[C@H](N(C)C)[C@H]2O)[C@@](C)(O)C[C@@H](C)CN(C)[C@H](C)[C@@H](OC(=O)NCc2ccccc2)[C@]1(C)O | < 0.03 µg/mL | 0.25 µg/mL (≈ 0.235 µM) | 0.25 µg/mL (≈ 0.235 µM) | 4 µg/mL (≈ 3.76 µM)
CC[C@H]1OC(=O)[C@H](C)[C@@H](O[C@H]2C[C@@](C)(OC)[C@@H](OC(=O)NCCc3ccccc3Cl)[C@H](C)O2)[C@H](C)[C@@H](O[C@@H]2O[C@H](C)C[C@H](N(C)C)[C@H]2O)[C@@](C)(O)C[C@@H](C)CN(C)[C@H](C)[C@@H](OC(=O)NCc2ccc(F)cc2)[C@]1(C)O | 0.06 µg/mL (≈ 0.0555 µM) | 0.25 µg/mL (≈ 0.231 µM) | 0.25 µg/mL (≈ 0.231 µM) | 4 µg/mL (≈ 3.7 µM)
